Test results taken from US8263598B2, “Substituted sulfonamide compounds” (Gruenenthal GmbH, priority 2008, dated 2012).

What was measured:
[1] = biological target: T1, human B1R receptor (hB1R) (Homo sapiens, UniProt P46663); experiment: FLIPR Ca2+ assay on human bradykinin 1 receptor (CHO K1 hB1R cells); type: cell-based; settings: test substance 10 μM; CHO K1 cells with human B1R gene; agonist Lys-Des-Arg9-bradykinin 0.5 nM; compared to maximum achievable inhibition
T1 construct: host or cells: CHO K1 cells
T1 sequence (P46663 1-353): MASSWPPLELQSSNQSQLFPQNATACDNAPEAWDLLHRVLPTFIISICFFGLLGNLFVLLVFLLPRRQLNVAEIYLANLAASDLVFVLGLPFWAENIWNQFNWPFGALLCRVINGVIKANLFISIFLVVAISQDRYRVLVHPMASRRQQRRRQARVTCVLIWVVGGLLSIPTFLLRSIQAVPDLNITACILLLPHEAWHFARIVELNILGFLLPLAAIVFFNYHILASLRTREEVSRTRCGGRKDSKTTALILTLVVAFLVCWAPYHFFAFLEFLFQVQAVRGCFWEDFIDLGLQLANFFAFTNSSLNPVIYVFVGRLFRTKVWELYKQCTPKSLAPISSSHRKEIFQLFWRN
In short: (§1)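 CHO K1 cells stably expressing human or rat B1R were loaded with Fluo-4 and tested at 10 μM compound. Ca²⁺ signal was read in FLIPR as % activation versus agonist. After 10 min, agonist was added (hB1R: Lys-Des-Arg9-bradykinin 0.5 nM; rB1R: Des-Arg9-bradykinin 100 nM), and % inhibition was taken relative to maximum achievable inhibition.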

[2] = biological target: T2, B1R receptor of rats (rB1R) (Rattus norvegicus, UniProt P97583); experiment: FLIPR Ca2+ assay on rat bradykinin 1 receptor (CHO K1 rB1R cells); type: cell-based; settings: test substance 10 μM; CHO K1 cells with B1R gene of rats; agonist Des-Arg9-bradykinin 100 nM; compared to maximum achievable inhibition
T2 construct: host or cells: CHO K1 cells
T2 sequence (P97583 1-337): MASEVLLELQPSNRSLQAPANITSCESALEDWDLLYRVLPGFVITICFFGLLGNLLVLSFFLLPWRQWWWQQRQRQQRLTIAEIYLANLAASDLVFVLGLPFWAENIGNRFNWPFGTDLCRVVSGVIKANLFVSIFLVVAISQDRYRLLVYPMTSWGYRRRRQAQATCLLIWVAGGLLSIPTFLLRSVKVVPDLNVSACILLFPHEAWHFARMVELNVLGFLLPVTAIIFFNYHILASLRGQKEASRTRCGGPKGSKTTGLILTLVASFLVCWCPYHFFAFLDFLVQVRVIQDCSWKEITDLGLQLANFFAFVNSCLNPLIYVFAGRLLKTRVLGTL
In short: as §1

**Q.** For `COc1cc(C)c(S(=O)(=O)N(C)CCOCC(=O)N2CCn3c(CN4CCCC4)ccc3C2)c(C)c1` [Example 11, 4-methoxy-N,2,6-trimethyl-N-(2-(2-oxo-2-(6-(pyrrolidin-1-ylmethyl)-3,4-dihydropyrrolo[1,2-a]pyrazin-2(1H)-yl)ethoxy)ethyl)benzenesulfonamide], which inhibition at 10 µM [1] is on record?
**A.** Its inhibition at 10 µM is 103%.

**Q.** What about the inhibition at 10 µM [2] of the same molecule?
**A.** The inhibition at 10 µM was 102%.

**Q.** How did the inhibition at 10 µM [1] turn out when `COc1cc(C)c(S(=O)(=O)N(C)CCOCC(=O)N2CCn3c(CN4CCCCC4)ccc3C2c2ccccc2)c(C)c1C` (centres unmarked) [Example 149, 4-methoxy-N,2,3,6-tetramethyl-N-(2-(2-oxo-2-(1-phenyl-6-(piperidin-1-ylmethyl)-3,4-dihydropyrrolo[1,2-a]pyrazin-2(1H)-yl)ethoxy)ethyl)benzene-sulfonamide] was run?
**A.** Its inhibition at 10 µM is 104%.

**Q.** And the inhibition at 10 µM [2]?
**A.** Its inhibition at 10 µM is 104%.

**Q.** Which results are given for `COc1cc(C)c(S(=O)(=O)N(C)CCOCC(=O)N2CCn3cccc3C2C(C)C)c(C)c1C` (centres unmarked) [Example 153, N-(2-(2-(1-isopropyl-3,4-dihydropyrrolo[1,2-a]pyrazin-2(1H)-yl)-2-oxoethoxy)ethyl)-4-methoxy-N,2,3,6-tetramethylbenzenesulfonamide]?
**A.** inhibition at 10 µM [1]: 103%; inhibition at 10 µM [2]: 103%

**Q.** `COc1cc(C)c(S(=O)(=O)N(C)CCOCC(=O)N2CCn3cccc3C2c2ccc(C(F)(F)F)cc2F)c(C)c1` (centres unmarked) [Example 63, N-(2-(2-(1-(2-fluoro-4-(trifluoromethyl)phenyl)-3,4-dihydropyrrolo[1,2-a]pyrazin-2(1H)-yl)-2-oxoethoxy)ethyl)-4-methoxy-N,2,6-trimethylbenzene-sulfonamide] was tested. Which inhibition at 10 µM [1] did it give?
**A.** Its inhibition at 10 µM is 102%.

**Q.** What about the inhibition at 10 µM [2] of the same molecule?
**A.** The inhibition at 10 µM was 100%.

**Q.** Which results are given for `COc1cccc(C2c3cccn3CCN2C(=O)COCCN(C)S(=O)(=O)c2c(C)cc(C)cc2C)c1` (centres unmarked) [Example 76, N-(2-(2-(1-(3-methoxyphenyl)-3,4-dihydropyrrolo[1,2-a]pyrazin-2(1H)-yl)-2-oxoethoxy)ethyl)-N,2,4,6-tetramethylbenzenesulfonamide]?
**A.** inhibition at 10 µM [1]: 101%; inhibition at 10 µM [2]: 97%

**Q.** `O=C(CC(NS(=O)(=O)c1ccc2ccccc2c1)c1ccccc1)N1CCn2c(CCc3cccnc3)ccc2C1` (centres unmarked) [Example 171, N-(3-Oxo-1-phenyl-3-(6-(2-(pyridin-3-yl)ethyl)-3,4-dihydropyrrolo[1,2-a]pyrazin-2(1H)-yl)propyl)naphthalene-2-sulfonamide] was tested. Which inhibition at 10 µM [1] did it give?
**A.** Its inhibition at 10 µM is 30%.

**Q.** And the inhibition at 10 µM [2]?
**A.** The inhibition at 10 µM was 99%.

**Q.** Which results are given for `COc1cc(C)c(S(=O)(=O)N(C)CCOCC(=O)N2CCn3cccc3C2c2ccc(Cl)nc2)c(C)c1` (centres unmarked) [Example 55, N-(2-(2-(1-(6-chloropyridin-3-yl)-3,4-dihydropyrrolo-[1,2-a]pyrazin-2(1H)-yl)-2-oxoethoxy)ethyl)-4-methoxy-N,2,6-trimethylbenzenesulfonamide]?
**A.** inhibition at 10 µM [1]: 100%; inhibition at 10 µM [2]: 99%

**Q.** For `COc1cc(C)c(S(=O)(=O)N(C)CCOCC(=O)N2CCn3cccc3C2c2ccc(F)c(F)c2)c(C)c1` (centres unmarked) [Example 57, N-(2-(2-(1-(3,4-difluorophenyl)-3,4-dihydropyrrolo[1,2-a]pyrazin-2(1H)-yl)-2-oxoethoxy)ethyl)-4-methoxy-N,2,6-trimethylbenzenesulfonamide], which inhibition at 10 µM [1] is on record?
**A.** The inhibition at 10 µM was 102%.

**Q.** What about the inhibition at 10 µM [2] of the same molecule?
**A.** The inhibition at 10 µM was 99%.

**Q.** With `Cc1cc(C)c(S(=O)(=O)N(C)CCOCC(=O)N2CCn3cccc3C2C(C)C)c(C)c1` (centres unmarked) [Example 147, N-(2-(2-(1-isopropyl-3,4-dihydropyrrolo[1,2-a]pyrazin-2(1H)-yl)-2-oxoethoxy)ethyl)-N,2,4,6-tetramethylbenzenesulfonamide] as the molecule, how does the inhibition at 10 µM [1] read?
**A.** The inhibition at 10 µM was 103%.

**Q.** What about the inhibition at 10 µM [2] of the same molecule?
**A.** The inhibition at 10 µM was 103%.

**Q.** `COc1cc(C)c(S(=O)(=O)N(C)CCOCC(=O)N2CCn3cccc3C2c2cccc(F)c2)c(C)c1` (centres unmarked) [Example 59, N-(2-(2-(1-(3-fluorophenyl)-3,4-dihydropyrrolo[1,2-a]pyrazin-2(1H)-yl)-2-oxoethoxy)ethyl)-4-methoxy-N,2,6-trimethylbenzenesulfonamide] was tested. Which inhibition at 10 µM [1] did it give?
**A.** The inhibition at 10 µM was 95%.

**Q.** What about the inhibition at 10 µM [2] of the same molecule?
**A.** The inhibition at 10 µM was 99%.

**Q.** `COc1c(C)cc(S(=O)(=O)N(C)CCOCC(=O)N2CCn3c(CN(C)C)ccc3C2CCc2ccccc2)c(C)c1C` (centres unmarked) [Example 110, N-(2-(2-(6-((dimethylamino)methyl)-1-phenethyl-3,4-dihydropyrrolo[1,2-a]pyrazin-2(1H)-yl)-2-oxoethoxy)ethyl)-4-methoxy-N,2,3,5-tetramethylbenzene-sulfonamide] was tested. Which inhibition at 10 µM [1] did it give?
**A.** Its inhibition at 10 µM is 103%.

**Q.** What about the inhibition at 10 µM [2] of the same molecule?
**A.** Its inhibition at 10 µM is 100%.

**Q.** What does the source list for `CN1CCN(CCCc2ccc3n2CCN(C(=O)CC(NS(=O)(=O)c2ccc4ccccc4c2)c2ccccc2)C3)CC1` (centres unmarked) [Example 13, N-(3-(6-(3-(4-methylpiperazin-1-yl)propyl)-3,4-dihydropyrrolo[1,2-a]pyrazin-2(1H)-yl)-3-oxo-1-phenylpropyl)naphthalene-2-sulfonamide]?
**A.** inhibition at 10 µM [1]: 44%; inhibition at 10 µM [2]: 100%

**Q.** How did the inhibition at 10 µM [1] turn out when `COc1cc(C)c(S(=O)(=O)N(C)CCOCC(=O)N2CCn3cccc3C2c2cccc(F)c2)c(C)c1C` (centres unmarked) [Example 87, N-(2-(2-(1-(3-fluorophenyl)-3,4-dihydropyrrolo[1,2-a]pyrazin-2(1H)-yl)-2-oxoethoxy)ethyl)-4-methoxy-N,2,3,6-tetramethylbenzenesulfonamide] was run?
**A.** The inhibition at 10 µM was 101%.

**Q.** And the inhibition at 10 µM [2]?
**A.** Its inhibition at 10 µM is 100%.

**Q.** Which inhibition at 10 µM [1] does the source give for `COc1cc(C)c(S(=O)(=O)N(CCOCC(=O)N2CCn3cccc3C2C(C)(C)C)Cc2ccccc2)c(C)c1` (centres unmarked) [Example 44, N-benzyl-N-(2-(2-(1-tert-butyl-3,4-dihydropyrrolo[1,2-a]pyrazin-2(1H)-yl)-2-oxoethoxy)ethyl)-4-methoxy-2,6-dimethylbenzenesulfonamide] here?
**A.** Its inhibition at 10 µM is 88%.

**Q.** What about the inhibition at 10 µM [2] of the same molecule?
**A.** The inhibition at 10 µM was 98%.

**Q.** Which inhibition at 10 µM [1] does the source give for `COc1cc(C)c(S(=O)(=O)N(CCOCC(=O)N2CCn3cccc3C2C(C)C)Cc2ccccc2)c(C)c1` (centres unmarked) [Example 155, N-benzyl-N-(2-(2-(1-isopropyl-3,4-dihydropyrrolo[1,2-a]pyrazin-2(1H)-yl)-2-oxoethoxy)ethyl)-4-methoxy-2,6-dimethylbenzenesulfonamide] here?
**A.** The inhibition at 10 µM was 75%.

**Q.** What about the inhibition at 10 µM [2] of the same molecule?
**A.** The inhibition at 10 µM was 101%.

**Q.** Which inhibition at 10 µM [1] does the source give for `O=C(C[C@@H](NS(=O)(=O)c1ccc2ccccc2c1)c1ccccc1)N1CCn2c(nc(CN3CCCCC3)c2Cl)C1` [Example 5, (R)-N-(3-(3-chloro-2-(piperidin-1-ylmethyl)-5,6-dihydroimidazo[1,2-a]pyrazin-7(8H)-yl)-3-oxo-1-phenylpropyl)naphthalene-2-sulfonamide] here?
**A.** The inhibition at 10 µM was 99%.

**Q.** And the inhibition at 10 µM [2]?
**A.** The inhibition at 10 µM was 97%.

**Q.** What does the source list for `COc1cc(C)c(S(=O)(=O)N(C)CCOCC(=O)N2CCn3cccc3C2C(C)(C)C)c(C)c1` (centres unmarked) [Example 52, N-(2-(2-(1-tert-butyl-3,4-dihydropyrrolo[1,2-a]pyrazin-2(1H)-yl)-2-oxoethoxy)ethyl)-4-methoxy-N,2,6-trimethylbenzenesulfonamide]?
**A.** inhibition at 10 µM [1]: 100%; inhibition at 10 µM [2]: 98%

**Q.** How did the inhibition at 10 µM [1] turn out when `COc1cc(C)c(S(=O)(=O)N(C)CCOCC(=O)N2CCn3ccnc3C2)c(C)c1` [Example 56, N-(2-(2-(5,6-dihydroimidazo[1,2-a]pyrazin-7(8H)-yl)-2-oxoethoxy)ethyl)-4-methoxy-N,2,6-trimethylbenzenesulfonamide] was run?
**A.** The inhibition at 10 µM was 85%.

**Q.** And the inhibition at 10 µM [2]?
**A.** Its inhibition at 10 µM is 97%.

**Q.** How did the inhibition at 10 µM [1] turn out when `COc1cc(C)c(S(=O)(=O)N(C)CCOCC(=O)N2CCn3cnnc3C2)c(C)c1` [Example 3, N-(2-(2-(5,6-dihydro-[1,2,4]triazolo[4,3-a]pyrazin-7(8H)-yl)-2-oxoethoxy)ethyl)-4-methoxy-N,2,6-trimethylbenzenesulfonamide] was run?
**A.** The inhibition at 10 µM was 43%.

**Q.** What about the inhibition at 10 µM [2] of the same molecule?
**A.** The inhibition at 10 µM was 93%.

**Q.** Which results are given for `COc1ccc(C2c3cccn3CCN2C(=O)COCCN(C)S(=O)(=O)c2cc(C)c(OC)c(C)c2C)cc1` (centres unmarked) [Example 31, 4-methoxy-N-(2-(2-(1-(4-methoxyphenyl)-3,4-dihydropyrrolo[1,2-a]pyrazin-2(1H)-yl)-2-oxoethoxy)ethyl)-N,2,3,5-tetramethylbenzenesulfonamide]?
**A.** inhibition at 10 µM [1]: 95%; inhibition at 10 µM [2]: 67%

**Q.** Which inhibition at 10 µM [1] does the source give for `COc1cccc(C2c3cccn3CCN2C(=O)COCCN(C)S(=O)(=O)c2c(C)cc(OC)c(C)c2C)c1` (centres unmarked) [Example 89, 4-methoxy-N-(2-(2-(1-(3-methoxyphenyl)-3,4-dihydropyrrolo[1,2-a]pyrazin-2(1H)-yl)-2-oxoethoxy)ethyl)-N,2,3,6-tetramethylbenzenesulfonamide] here?
**A.** Its inhibition at 10 µM is 100%.

**Q.** What about the inhibition at 10 µM [2] of the same molecule?
**A.** Its inhibition at 10 µM is 98%.

**Q.** What does the source list for `CCC1c2ccc(CN(C)C)n2CCN1C(=O)COCCN(Cc1ccccc1)S(=O)(=O)c1c(C)cc(OC)cc1C` (centres unmarked) [Example 131, N-benzyl-N-(2-(2-(6-((dimethylamino)methyl)-1-ethyl-3,4-dihydropyrrolo[1,2-a]pyrazin-2(1H)-yl)-2-oxoethoxy)ethyl)-4-methoxy-2,6-dimethylbenzene-sulfonamide]?
**A.** inhibition at 10 µM [1]: 101%; inhibition at 10 µM [2]: 101%
